Measurements from publication PMC6383769 (Nature, 2019).

Tests used:
human D4 (D4.4 variant) [1] = target: T1, human D4 (D4.4 variant) (Homo sapiens, UniProt P21917); assay: biochemical; format: binding
T1 sequence (P21917 1-419): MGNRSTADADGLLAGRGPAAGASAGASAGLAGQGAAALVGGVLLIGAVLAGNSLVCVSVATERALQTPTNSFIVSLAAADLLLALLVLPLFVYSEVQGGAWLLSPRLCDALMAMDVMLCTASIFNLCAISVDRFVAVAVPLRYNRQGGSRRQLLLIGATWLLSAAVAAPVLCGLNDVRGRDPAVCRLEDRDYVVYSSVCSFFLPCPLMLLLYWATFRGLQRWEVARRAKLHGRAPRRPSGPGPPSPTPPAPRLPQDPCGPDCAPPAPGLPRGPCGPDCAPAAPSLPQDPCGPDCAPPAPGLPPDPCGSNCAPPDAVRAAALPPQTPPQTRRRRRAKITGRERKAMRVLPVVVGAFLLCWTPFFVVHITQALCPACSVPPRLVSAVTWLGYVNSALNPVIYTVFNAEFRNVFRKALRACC

human D3 = human D3 (Homo sapiens, UniProt P35462); assay: D3 radioligand binding assay
[2] = target: human D2 (D2 long receptor) (Homo sapiens, UniProt P14416); assay: biochemical; format: binding
human D4 (D4.4 variant) [3] = target: T1, human D4 (D4.4 variant); assay: cell-based
cloned human D4 = target: T2, cloned human D4 (Homo sapiens, UniProt P21917); assay: cell-based; settings: Tango EC50, D4 β-arrestin
T2 sequence (P21917 1-419): T1 sequence (P21917 1-419)

human D4 [4] = target: T3, human D4 (Homo sapiens, UniProt P21917); assay: Arrestin BRET; format: cell-based
T3 sequence (P21917 1-419): T1 sequence (P21917 1-419)

human D4 [5] = target: T3, human D4; assay: cell-based
D4 dopamine receptor = assay: Signaling bias, G protein versus β-arrestin, versus quinpirole; format: cell-based, human

Sequence of human D2 (D2 long receptor) (P14416 whole entry): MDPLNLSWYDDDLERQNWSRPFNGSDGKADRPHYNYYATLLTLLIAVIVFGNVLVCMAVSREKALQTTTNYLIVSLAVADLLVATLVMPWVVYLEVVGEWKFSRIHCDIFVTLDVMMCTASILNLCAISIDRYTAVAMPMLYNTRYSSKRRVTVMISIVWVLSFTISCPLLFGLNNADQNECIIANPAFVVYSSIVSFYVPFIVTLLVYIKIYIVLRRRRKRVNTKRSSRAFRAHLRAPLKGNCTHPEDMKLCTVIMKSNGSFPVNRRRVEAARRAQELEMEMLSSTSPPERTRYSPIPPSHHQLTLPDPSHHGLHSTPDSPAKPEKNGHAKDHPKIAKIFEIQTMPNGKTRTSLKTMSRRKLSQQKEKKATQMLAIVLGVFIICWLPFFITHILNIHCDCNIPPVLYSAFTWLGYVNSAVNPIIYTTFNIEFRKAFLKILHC
Sequence of human D3 (P35462 whole entry): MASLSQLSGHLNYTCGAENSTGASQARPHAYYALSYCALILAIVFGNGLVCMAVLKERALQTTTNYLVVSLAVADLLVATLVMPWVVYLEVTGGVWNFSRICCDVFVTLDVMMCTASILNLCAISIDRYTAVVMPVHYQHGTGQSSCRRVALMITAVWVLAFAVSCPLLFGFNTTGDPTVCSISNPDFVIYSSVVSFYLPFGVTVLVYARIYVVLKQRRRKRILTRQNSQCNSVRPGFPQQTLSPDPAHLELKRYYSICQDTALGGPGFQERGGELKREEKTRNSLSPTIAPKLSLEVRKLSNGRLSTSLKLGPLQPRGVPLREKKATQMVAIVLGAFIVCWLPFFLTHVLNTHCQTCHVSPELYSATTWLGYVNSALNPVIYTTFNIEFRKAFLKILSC

| SMILES | Ki (human D4 (D4.4 variant) [1]) [µM] | Ki (human D3) [µM] | Ki [2] [µM] | EC50 (human D4 (D4.4 variant) [3]) [µM] | EC50 (cloned human D4) [µM] | EC50 (human D4 [4]) [µM] | EC50 (human D4 [5]) [µM] | β-arrestin bias (D4 dopamine receptor) |
| --- | --- | --- | --- | --- | --- | --- | --- | --- |
| C[C@@H]1CCCN(C(C)(C)CNc2nc(C3CC3)ns2)C1 [ZINC92642352] | 0.82 | > 10 | > 10 |  |  |  |  |  |
| C[C@H]1CN(C2CC2)C[C@H]1NC(=O)c1cc2cc([N+](=O)[O-])ccc2s1 [ZINC268141382] | 0.56 | > 10 | > 10 | 9.9 |  |  |  |  |
| CCCC[C@H](CN)NC(=O)Nc1cnn(-c2ccc(C)cc2C)c1 [ZINC415558697] | 0.99 | 5.87 | 2 |  |  |  |  |  |
| CCC(CC)[C@@H](O)CNCc1cnc(-c2ccccc2F)s1 [ZINC449156693] | 0.76 | > 10 | > 10 |  |  |  |  |  |
| C[C@H]1CN(C2CC2)C[C@H]1NC(=O)c1cc2cc(Br)ccc2o1 [ZINC467716766] | 0.7 | > 10 | > 10 | 34.8 |  |  |  |  |
| CCC[C@H](C)[C@H](CO)NCCc1nc(-c2ccc(Cl)cc2)no1 [ZINC567992445] | 0.85 | > 10 | > 10 | 4.82 |  |  |  |  |
| C=C(C)COCCNC[C@H](O)Cc1ccc(C(F)(F)F)cc1 [ZINC569686370] | 0.55 | > 10 | > 10 | 7.8 |  |  |  |  |
| CC1(C)CCN(CC(=O)NC[C@@H]2CCC[C@H]2C2CC2)C1 [ZINC572302473] | 0.91 | > 10 | > 10 |  |  |  |  |  |
| N#Cc1ccnc(SC[C@]2(O)CCN(Cc3ccccc3)C2)c1 [ZINC601953994] | 0.98 | > 10 | > 10 |  |  |  |  |  |
| CC(C)N1C[C@H](C)[C@H](NC(=O)N2Cc3ccccc3[C@@H]2C)C1 [ZINC621433143] | 0.669 | > 10 | > 10 | 0.35 | 0.898 | 1.25 | 3.15 | 7 |
| O=C(CN1C[C@@H](O)C[C@@H]1C1CC1)Nc1ccc(Br)cc1 [ZINC640028109] | 0.81 | > 10 | > 10 |  |  |  |  |  |
| C[C@H](CNC(=O)c1coc2ccc(Cl)cc12)N1CCCC1 [ZINC651262870] | 0.44 | > 10 | > 10 | 31 |  |  |  |  |

Compounds with a lower Ki (human D4 (D4.4 variant) [1]), results first:

| Ki (human D4 (D4.4 variant) [1]) [µM] | Ki (human D3) [µM] | Ki [2] [µM] | EC50 (human D4 (D4.4 variant) [3]) [µM] | EC50 (cloned human D4) [µM] | EC50 (human D4 [4]) [µM] | EC50 (human D4 [5]) [µM] | SMILES | β-arrestin bias (D4 dopamine receptor) |
| --- | --- | --- | --- | --- | --- | --- | --- | --- |
| 0.3 | > 10 | > 10 |  |  |  |  | O[C@]1(CNCc2cnn(-c3ccc(Br)cc3)c2)CCSC1 [ZINC176752603] |  |
| 0.27 | > 10 | > 10 | 0.041 | 22.3 |  |  | C=Cn1cc(CNC[C@@H](CO)Cc2ccccc2Br)cn1 [ZINC278933042] |  |
| 0.26 | 3.57 | > 10 | 10.4 |  |  |  | Cc1ccc(CNCCCn2cccn2)cc1Br [ZINC127859549] |  |
| 0.25 | 6.54 | 5.88 |  |  |  |  | OC[C@H](Cc1ccc(F)cc1)NCc1ccn(-c2ccccc2)n1 [ZINC358506216] |  |
| 0.21 | > 10 | > 10 |  |  |  |  | CC(C)N1C[C@H](C)[C@H](NC(=O)c2cccc3cc[nH]c23)C1 [ZINC247398558] |  |
| 0.19 | > 10 | > 10 | 10.4 |  |  |  | C[C@H](N[C@H](CO)Cc1ccccc1)c1cc2c(s1)CCC2 [ZINC437075156] |  |
| 0.18 | 1.07 | 5.72 |  |  |  |  | Cc1cccc(CCNCc2ccn(-c3ccccc3)n2)c1 [ZINC237938360] |  |
| 0.18 | > 10 | > 10 |  |  |  |  | C#CCOc1ccccc1CN1CC[C@@]2(C1)C(=O)Nc1ccccc12 [ZINC375299581] |  |
